target: T1, human PDE4B1 (Homo sapiens, UniProt Q07343); test: cAMP HTRF assay to determine the activity of hPDE4B1; assay type: biochemical; settings: inhibition of PDE4B at a test concentration of 1 μM
T1 construct: host or cells: Sf9 cells
Procedure, shortened: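 […], using HTRF quantitation of residual cAMP after 1 mM IBMX stop and 60 min detection. Enzyme was Sf9-expressed human PDE4B1 incubated 30 min at room temperature with 40 nM final cAMP at pH 7.8.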

T1 sequence (Q07343 whole entry): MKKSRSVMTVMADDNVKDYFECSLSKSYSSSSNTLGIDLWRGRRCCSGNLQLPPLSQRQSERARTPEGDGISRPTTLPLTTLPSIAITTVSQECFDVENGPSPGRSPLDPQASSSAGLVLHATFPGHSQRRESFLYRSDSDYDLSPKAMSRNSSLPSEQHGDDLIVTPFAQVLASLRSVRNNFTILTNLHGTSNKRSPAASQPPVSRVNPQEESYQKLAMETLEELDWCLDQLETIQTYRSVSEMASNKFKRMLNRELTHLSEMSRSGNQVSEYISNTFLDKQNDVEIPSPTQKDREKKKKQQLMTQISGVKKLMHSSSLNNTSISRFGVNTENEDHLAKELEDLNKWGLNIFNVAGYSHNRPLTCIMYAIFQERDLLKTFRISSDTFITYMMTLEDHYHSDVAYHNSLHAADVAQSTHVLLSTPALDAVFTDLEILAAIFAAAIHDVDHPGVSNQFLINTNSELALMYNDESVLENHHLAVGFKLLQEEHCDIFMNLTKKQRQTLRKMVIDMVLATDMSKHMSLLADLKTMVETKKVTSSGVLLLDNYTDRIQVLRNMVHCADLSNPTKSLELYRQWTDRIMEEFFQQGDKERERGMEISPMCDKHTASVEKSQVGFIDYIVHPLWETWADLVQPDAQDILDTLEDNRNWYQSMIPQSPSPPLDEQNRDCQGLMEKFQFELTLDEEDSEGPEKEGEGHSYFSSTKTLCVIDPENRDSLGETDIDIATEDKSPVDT

Q: How did the inhibition at 1 µM turn out when `CN(CCC(=O)O)C(=O)c1ccc2c([S+](C)[O-])cn(-c3ncc(-c4ccccc4F)cn3)c2c1` (stereo not shown) [Example 369, 3-(1-(5-(2-Fluorophenyl)pyrimidin-2-yl)-N-methyl-3-(methylsulfinyl)-1H-indole-6-carboxamido)propanoic acid] was run?
A: 87%

Q: How did the inhibition at 1 µM turn out when `C[S+]([O-])c1cn(-c2ncc(-c3ccccc3F)cn2)c2cc(C(=O)N3CCC4(COC4)C3)ccc12` (stereo not shown) [Example 370, (1-(5-(2-Fluorophenyl)pyrimidin-2-yl)-3-(methylsulfinyl)-1H-indol-6-yl)(2-oxa-6-azaspiro[3.4]octan-6-yl)methanone] was run?
A: 23%

Q: Which inhibition at 1 µM does the source give for `CCC1CCCCN1C(=O)c1ccc2c([S+](C)[O-])cn(-c3ncc(-c4ccccc4F)cn3)c2c1` (stereo not shown) [Example 371, (2-Ehylpiperidin-1-yl)(1-(5-(2-fluorophenyl)pyrimidin-2-yl)-3-(methylsulfinyl)-1H-indol-6-yl)methanone] here?
A: 32%

Q: With `CN(C)[C@@H]1CCN(C(=O)c2ccc3c([S+](C)[O-])cn(-c4ncc(-c5ccccc5F)cn4)c3c2)C1` (stereo partly drawn) [Example 374, ((R)-3-(Dimethylamino)pyrrolidin-1-yl)(1-(5-(2-fluorophenyl)-pyrimidin-2-yl)-3-(methylsulfinyl)-1H-indol-6-yl)methanone] as the compound, how does the inhibition at 1 µM read?
A: 47%

Q: Which inhibition at 1 µM does the source give for `CCN1CCN(C(=O)c2ccc3c([S+](C)[O-])cn(-c4ncc(-c5ccccc5F)cn4)c3c2)CC1` (stereo not shown) [Example 375, (4-Ethylpiperazin-1-yl)(1-(5-(2-fluorophenyl)pyrimidin-2-yl)-3-(methylsulfinyl)-1H-indol-6-yl)methanone] here?
A: 66%

Q: How did the inhibition at 1 µM turn out when `CN1CCCN(C(=O)c2ccc3c([S+](C)[O-])cn(-c4ncc(-c5ccccc5F)cn4)c3c2)CC1` (stereo not shown) [Example 376, (1-(5-(2-Fluorophenyl)pyrimidin-2-yl)-3-(methylsulfinyl)-1H-indol-6-yl)(4-methyl-1,4-diazepan-1-yl)methanone] was run?
A: 31%

Q: With `C[S+]([O-])c1cn(-c2ncc(-c3ccccc3F)cn2)c2cc(C(=O)N3CCCCC3CO)ccc12` (stereo not shown) [Example 379, (1-(5-(2-Fluorophenyl)pyrimidin-2-yl)-3-(methylsulfinyl)-1H-indol-6-yl)(2-(hydroxymethyl)piperidin-1-yl)methanone] as the compound, how does the inhibition at 1 µM read?
A: 50%

Q: Which inhibition at 1 µM does the source give for `C[S+]([O-])c1cn(-c2ncc(-c3ccccc3F)cn2)c2cc(C(=O)N3CCC(CO)CC3)ccc12` (stereo not shown) [Example 380, (1-(5-(2-Fluorophenyl)pyrimidin-2-yl)-3-(methylsulfinyl)-1H-indol-6-yl)(4-(hydroxymethyl)piperidin-1-yl)methanone] here?
A: 9%

Q: With `CN(C(=O)c1ccc2c([S+](C)[O-])cn(-c3ncc(-c4ccccc4F)cn3)c2c1)C1CCOCC1` (stereo not shown) [Example 382, 1-(5-(2-Fluorophenyl)pyrimidin-2-yl)-N-methyl-3-(methylsulfinyl)-N-(tetrahydro-2H-pyran-4-yl)-1H-indole-6-carboxamide] as the compound, how does the inhibition at 1 µM read?
A: 0%

Q: With `C[S+]([O-])c1cn(-c2ncc(-c3ccccc3F)cn2)c2cc(C(=O)N3CCOC(C)(C)C3)ccc12` (stereo not shown) [Example 383, (2,2-Dimethylmorpholino)(1-(5-(2-fluorophenyl)pyrimidin-2-yl)-3-(methylsulfinyl)-1H-indol-6-yl)methanone] as the compound, how does the inhibition at 1 µM read?
A: 68%

Q: For `C[S+]([O-])c1cn(-c2ncc(-c3ccccc3F)cn2)c2cc(C(=O)N3CCC4(CC3)COC4)ccc12` (stereo not shown) [Example 384, (1-(5-(2-Fluorophenyl)pyrimidin-2-yl)-3-(methylsulfinyl)-1H-indol-6-yl)(2-oxa-7-azaspiro[3.5]nonan-7-yl)methanone], which inhibition at 1 µM is on record?
A: 3%

Q: Which inhibition at 1 µM does the source give for `CC(=O)N1CCN(C(=O)c2ccc3c([S+](C)[O-])cn(-c4ncc(-c5ccccc5F)cn4)c3c2)CC1` (stereo not shown) [Example 385, 1-(4-(1-(5-(2-Fluorophenyl)pyrimidin-2-yl)-3-(methylsulfinyl)-1H-indole-6-carbonyl)piperazin-1-yl)ethanone] here?
A: 0%

Q: With `CC(C)N1CCN(C(=O)c2ccc3c([S+](C)[O-])cn(-c4ncc(-c5ccccc5F)cn4)c3c2)CC1` (stereo not shown) [Example 386, (1-(5-(2-Fluorophenyl)pyrimidin-2-yl)-3-(methylsulfinyl)-1H-indol-6-yl)(4-isopropylpiperazin-1-yl)methanone] as the compound, how does the inhibition at 1 µM read?
A: 6%

Q: How did the inhibition at 1 µM turn out when `CN(C)C1CCN(C(=O)c2ccc3c([S+](C)[O-])cn(-c4ncc(-c5ccccc5F)cn4)c3c2)CC1` (stereo not shown) [Example 387, (4-(Dimethylamino)piperidin-1-yl)(1-(5-(2-fluorophenyl)pyrimidin-2-yl)-3-(methylsulfinyl)-1H-indol-6-yl)methanone] was run?
A: 8%

Q: How did the inhibition at 1 µM turn out when `COC(=O)C1CCN(C(=O)c2ccc3c([S+](C)[O-])cn(-c4ncc(-c5ccccc5F)cn4)c3c2)C1` (stereo not shown) [Example 388, Methyl 1-(1-(5-(2-fluorophenyl)pyrimidin-2-yl)-3-(methylsulfinyl)-1H-indole-6-carbonyl)pyrrolidine-3-carboxylate] was run?
A: 45%

Q: `C[S+]([O-])c1cn(-c2ncc(-c3ccccc3F)cn2)c2cc(C(=O)N3CCN(CCO)CC3)ccc12` (stereo not shown) [Example 389, (1-(5-(2-Fluorophenyl)pyrimidin-2-yl)-3-(methylsulfinyl)-1H-indol-6-yl)(4-(2-hydroxyethyl)piperazin-1-yl)methanone] was tested. Which inhibition at 1 µM did it give?
A: 52%

Q: `C[S+]([O-])c1cn(-c2ncc(-c3ccccc3F)cn2)c2cc(C(=O)N3CCS(=O)(=O)CC3)ccc12` (stereo not shown) [Example 390, (1,1-Dioxidothiomorpholino)(1-(5-(2-fluorophenyl)pyrimidin-2-yl)-3-(methylsulfinyl)-1H-indol-6-yl)methanone] was tested. Which inhibition at 1 µM did it give?
A: 6%

Q: With `C[S+]([O-])c1cn(-c2ncc(-c3ccccc3F)cn2)c2cc(C(=O)N3CCN(CCC#N)CC3)ccc12` (stereo not shown) [Example 391, 3-(4-(1-(5-(2-Fluorophenyl)pyrimidin-2-yl)-3-(methylsulfinyl)-1H-indole-6-carbonyl)piperazin-1-yl)propanenitrile] as the compound, how does the inhibition at 1 µM read?
A: 31%

Q: `COCCN1CCN(C(=O)c2ccc3c([S+](C)[O-])cn(-c4ncc(-c5ccccc5F)cn4)c3c2)CC1` (stereo not shown) [Example 392, (1-(5-(2-Fluorophenyl)pyrimidin-2-yl)-3-(methylsulfinyl)-1H-indol-6-yl)(4-(2-methoxyethyl)piperazin-1-yl)methanone] was tested. Which inhibition at 1 µM did it give?
A: 0%

Q: How did the inhibition at 1 µM turn out when `CCOC(=O)C1CCN(C(=O)c2ccc3c([S+](C)[O-])cn(-c4ncc(-c5ccccc5F)cn4)c3c2)CC1` (stereo not shown) [Example 393, Ethyl 1-(1-(5-(2-fluorophenyl)pyrimidin-2-yl)-3-(methylsulfinyl)-1H-indole-6-carbonyl)piperidine-4-carboxylate] was run?
A: 10%

Q: With `CCOC(=O)N1CCN(C(=O)c2ccc3c([S+](C)[O-])cn(-c4ncc(-c5ccccc5F)cn4)c3c2)CC1` (stereo not shown) [Example 394, Ethyl 4-(1-(5-(2-fluorophenyl)pyrimidin-2-yl)-3-(methylsulfinyl)-1H-indole-6-carbonyl)piperazine-1-carboxylat] as the compound, how does the inhibition at 1 µM read?
A: 0%

Q: With `CN(C)C(=O)CN1CCN(C(=O)c2ccc3c([S+](C)[O-])cn(-c4ncc(-c5ccccc5F)cn4)c3c2)CC1` (stereo not shown) [Example 395, 2-(4-(1-(5-(2-Fluorophenyl)pyrimidin-2-yl)-3-(methylsulfinyl)-1H-indole-6-carbonyl)piperazin-1-yl)-N,N-dimethylacetamide] as the compound, how does the inhibition at 1 µM read?
A: 0%

same assay, conditions: inhibition of PDE4B at a test concentration of 1 μM, 1 µM

Q: Which Inhibition in % does the source give for `COC1CCN(C(=O)c2ccc3c([S+](C)[O-])cn(-c4ncc(-c5ccccc5F)cn4)c3c2)CC1` (stereo not shown) [Example 381, (1-(5-(2-Fluorophenyl)pyrimidin-2-yl)-3-(methylsulfinyl)-1H-indol-6-yl)(4-methoxypiperidin-1-yl)methanone] here?
A: 12%

target: T1, human PDE4B1; test: TR-FRET assay using the LANCE Ultra cAMP kit to determine the activity of hPDE4B1; assay type: biochemical; settings: test concentration 10 μM (marked in cell), read-out: Inhibition in % (inhibition of PDE4B)
Source text: TR-FRET Assay Using the LANCE® Ultra cAMP Kit to Determine the Activity of hPDE4B1
The effects of the compounds on the activity of the human PDE4B1 was quantified by measuring the production of 5′AMP from cAMP using a human recombinant enzyme expressed in Sf9 cells and the LANCE® Ultra cAMP kit, a TR-FRET detection method from PerkinElmer. The human PDE4B1 enzyme was purchased from SignalChem Lifesciences (Catalog# P92-31BG, Lot# H296-2).
The test compound, reference compound or water (control) was mixed with the enzyme (0.96 U) in a reaction buffer containing 50 mM Tris-HCl, 50 mM MgCl2 and 5 mM DTT (pH 8.5). Thereafter, the reaction was initiated by addition of 500 nM cAMP (substrate) and the mixture was incubated for 30 minutes at room temperature. For control basal measurements, the enzyme was omitted from the reaction mixture. After 30 minutes, the reaction was stopped and diluted by a factor of 100 with the reaction buffer supplemented with 500 μM IBMX. The fluorescence donor (europium chelate-labeled cAMP) and the fluorescence acceptor (anti-cAMP antibody labeled with the ULight™ dye) were then added together with 500 μM IBMX to a 10 μl aliquot. After 60 minutes, the fluorescence transfer corresponding to the amount of residual cAMP was measured at λex=337 nm, λem=620 nm and λem=665 nm using a microplate reader (PHERAstar, BMG). The enzyme activity was determined by dividing the signal measured at 665 nm by that measured at 620 nm (ratio) multiplied by 10000. The results were expressed as percent inhibition of the control enzyme activity. IC50 values (IC50=concentration causing a half-maximal inhibition of control specific activity) were derived from dose response measurements with ten different concentrations (n=3; N=1-3).

Q: With `CN(CC(N)=O)C(=O)c1ccc2c([S+](C)[O-])cn(-c3ncc(-c4cc(C5CC5)ccn4)cn3)c2c1` (single isomer, unassigned) [Example 333, N-(2-Amino-2-oxoethyl)-1-(5-(4-cyclopropylpyridin-2-yl)pyrimidin-2-yl)-N-methyl-3-(methylsulfinyl)-1H-indole-6-carboxamide] as the compound, how does the inhibition at 10 µM read?
A: 87%

Q: Which inhibition at 10 µM does the source give for `CN(CC(N)=O)C(=O)c1ccc2c([S+](C)[O-])cn(-c3ncc(-c4cc(C(C)(C)O)ccc4F)cn3)c2c1` (single isomer, unassigned) [Example 334, N-(2-Amino-2-oxoethyl)-1-(5-(2-fluoro-5-(2-hydroxypropan-2-yl)phenyl)pyrimidin-2-yl)-N-methyl-3-(methylsulfinyl)-1H-indole-6-carboxamide] here?
A: 99%
